Assay results: patent US7018989B2, “Chemical compounds” (University College Cardiff Consultants, LTD, priority 1995, dated 2006)
Like-named read-outs stand apart in the source and are kept apart here.

Experiments:
HIV-1 = experiment: microbe, parasite or virus in culture; details: read-out: HIV1 CEM: EC50 for inhibition of HIV-1 in CEM cells
Description: (§1) Cells were infected with HIV-1 as previously described [Balzarini et al. AIDS (1991), 5, 21–28]. Briefly, 5×10^5 cells per milliliter were infected with HIV-1 or HIV-2 at 100 CCID50 (50% cell culture infective dose) per milliliter of cell suspension. Then 100 μL of the infected cell suspension was transferred to microtiter plate wells and mixed with 100 μL of the appropriate dilutions of the test compounds. After 4 days giant cell formation was recorded microscopically in the HIV-infected cell cultures [CEM], and after 5 days the number of viable cells was determined by trypan blue staining of the HIV-infected cell cultures [MT4].
(§2) The data columns are, in order: • HIV1 MT4: EC50 in μM for inhibition of HIV-1 in MT4 cells. • HIV2 MT4: EC50 in μM for inhibition of HIV-2 in MT4 cells. • CC50 MT4: CC50 in μM for toxicity to MT-4 cells. • HIV1 CEM: EC50 in μM for inhibition of HIV-1 in CEM cells. • HIV2 CEM: EC50 in μM for inhibition of HIV-2 in CEM cells. • HIV2 CEM-TK-: EC50 in μM for inhibition of HIV-2 in CEM/TK^− cells. • CC50 CEM: CC50 in μM for toxicity to CEM cells. • EC50 MSV: EC50 in μM for inhibition of MSV • MCC MSV: Minimum cytotoxic concentration in MSV assay

HIV-2 [1] = experiment: Inhibition of HIV-2 in CEM cells (giant cell formation); type: cell-based; details: read-out: HIV2 CEM: EC50 for inhibition of HIV-2 in CEM cells
Description: as §1, §2

HIV-2 [2] = experiment: Inhibition of HIV-2 in CEM/TK- cells; type: cell-based
Description: as §1, §2

CEM cells = experiment: Toxicity to CEM cells; type: cell-based, human
Description: as §1, §2

MSV = experiment: Inhibition of MSV (in vitro); type: cell-based, Moloney Sarcoma Virus; details: MSV
Text: as §2

[3] = Minimum cytotoxic concentration in MSV assay; type: cell-based; details: MSV assay
Text: as §2, with “CEM/TK^-” for “CEM/TK^−”, “[…]:” for “MSV • MCC MSV:”

[4] = Table 6, mean of two or more repeat experiments
[5] = Table 6, mean of two or more repeat experiments, read-out: HIV2 CEM-TK-: EC50 for inhibition of HIV-2 in CEM/TK^− cells
[6] = CEM/TK- cells, HIV-2, read-out: HIV2 CEM-TK-: EC50 for inhibition of HIV-2 in CEM/TK- cells

SMILES	EC50 (HIV-1; [4])	EC50 (HIV-2 [1]; [4])	EC50 (HIV-2 [2]; [5])	CC50 (CEM cells; [4])	EC50 (HIV-1; CEM cells, HIV-1)	EC50 (HIV-2 [1]; CEM cells, HIV-2)	CC50 (CEM cells; CEM cells)	EC50 (MSV)	MCC MSV: Minimum cytotoxic concentration in MSV assay [3]	EC50 (HIV-2 [2]; [6])
CC(NP(=O)(OCC1C=CC(n2ccc(=O)[nH]c2=O)O1)Oc1ccccc1)C(=O)OCc1ccccc1 (centres unmarked) [Compound 849]	23 µM	15 µM	10 µM	115 µM	–	–	–	–	–	–
COC(=O)C(Cc1ccccc1)NP(=O)(OCC1OC(n2cc(C)c(=O)[nH]c2=O)CC1N=[N+]=[N-])Oc1ccccc1 (centres unmarked) [Cpd 941]	–	–	–	–	> 50 µM	> 50 µM	115 µM	> 100 µM	>100	–
Cc1cn(C2C=CC(COP(=O)(OCCC#N)Oc3ccccc3)O2)c(=O)[nH]c1=O (centres unmarked) [Compound 861]	1.2 µM	0.95 µM	17.5 µM	≥ 250 µM	–	–	–	–	–	–
CO[PH](=O)OCC1C=CC(n2cc(C)c(=O)[nH]c2=O)O1 (centres unmarked) [Compound 817]	0.7 µM	0.55 µM	20 µM	146 µM	–	–	–	–	–	–
CCCCO[PH](=O)OCC1C=CC(n2cc(C)c(=O)[nH]c2=O)O1 (centres unmarked) [Compound 790]	0.65 µM	0.9 µM	30 µM	177 µM	–	–	–	–	–	–
CCCNP(=O)(OCC1C=CC(n2cc(C)c(=O)[nH]c2=O)O1)Oc1ccccc1 (centres unmarked) [Compound 858]	> 250 µM	> 250 µM	> 250 µM	> 250 µM	–	–	–	–	–	–
CCCCCCOP(=O)(OCCCCCC)OCC1C=CC(n2cc(C)c(=O)[nH]c2=O)O1 (centres unmarked) [Compound 321]	> 42 µM	> 42 µM	> 42 µM	36 µM	–	–	–	–	–	–
CCCCCCNP(=O)(OCC1C=CC(n2cc(C)c(=O)[nH]c2=O)O1)Oc1ccccc1 (centres unmarked) [Compound 859]	> 50 µM	> 50 µM	> 50 µM	145 µM	–	–	–	–	–	–
Cc1cn(C2C=CC(COP(=O)(O)Oc3ccccc3)O2)c(=O)[nH]c1=O (centres unmarked) [Compound 853]	0.65 µM	0.7 µM	23 µM	153 µM	–	–	–	–	–	–
CCCCCCOP(=O)(OCCC#N)OCC1OC(n2cc(C)c(=O)[nH]c2=O)CC1N=[N+]=[N-] (centres unmarked) [Cpd 856]	–	–	–	–	13 µM	25 µM	> 250 µM	–	–	> 250 µM
COC(=O)C(C)NP(=O)(OC)OCC1OC(n2cc(C)c(=O)[nH]c2=O)CC1N=[N+]=[N-] (centres unmarked) [Cpd 739]	–	–	–	–	10 µM	18 µM	> 250 µM	–	–	> 250 µM
Cc1cn([C@H]2C=C[C@@H](COP(=O)(O)NCC(=O)O)O2)c(=O)[nH]c1=O [Compound 1163, 2′,3′-dideoxy-2′,3′-didehydrothymidine 5′-(glycinyl phosphate)]	2 µM	5 µM	130 µM	> 250 µM	–	–	–	–	–	–
CCCCNP(=O)(OCC1C=CC(n2cc(C)c(=O)[nH]c2=O)O1)Oc1ccccc1 (centres unmarked) [Compound 840]	140 µM	100 µM	125 µM	> 250 µM	–	–	–	–	–	–
CCCCCCOP(=O)(O)OCC1OC(n2cc(C)c(=O)[nH]c2=O)CC1N=[N+]=[N-] (centres unmarked) [Cpd 857]	–	–	–	–	5 µM	10 µM	> 250 µM	–	–	> 250 µM
CCO[PH](=O)OCC1C=CC(n2cc(C)c(=O)[nH]c2=O)O1 (centres unmarked) [Compound 788]	0.65 µM	0.6 µM	30 µM	115 µM	–	–	–	–	–	–
Cc1cn(C2CC(N=[N+]=[N-])C(COP(=O)(O)OCC(F)(F)F)O2)c(=O)[nH]c1=O (centres unmarked) [Cpd 855]	–	–	–	–	17.5 µM	17.5 µM	> 250 µM	–	–	> 250 µM
COC(=O)C1CCCN1P(=O)(OCC1C=CC(n2cc(C)c(=O)[nH]c2=O)O1)Oc1ccccc1 (centres unmarked) [Compound 879]	> 10 µM	> 10 µM	> 10 µM	42.5 µM	–	–	–	–	–	–
CCCCCCCCn1c(=O)c(C)cn(C2CC(N=[N+]=[N-])C(COP(=O)(NC(C)C(=O)OC)Oc3ccccc3)O2)c1=O (centres unmarked) [Cpd 774]	–	–	–	–	> 10 µM	> 10 µM	15 µM	–	–	–
COC(=O)C(C)NP(=O)(OCC1OC(n2cc(C)c(=O)[nH]c2=O)CC1N=[N+]=[N-])Oc1c(F)c(F)c(F)c(F)c1F (centres unmarked) [Cpd 780]	–	–	–	–	23 µM	33 µM	106 µM	–	–	100 µM

SMILES	EC50 (HIV-1; [4])	EC50 (HIV-2 [1]; [4])	EC50 (HIV-2 [2]; [5])	CC50 (CEM cells; [4])	EC50 (HIV-1; CEM cells, HIV-1)	EC50 (HIV-2 [1]; CEM cells, HIV-2)	CC50 (CEM cells; CEM cells)	EC50 (MSV)	MCC MSV: Minimum cytotoxic concentration in MSV assay [3]	EC50 (HIV-2 [2]; [6])
O=c1ccn([C@H]2C=C[C@@H](CO)O2)c(=O)[nH]1 [Compound 446, reference compound]	> 95 µM	> 95 µM	> 95 µM	–	–	–	–	–	–	–
Cc1cn(C2CC(N=[N+]=[N-])C(COP(=O)(OCCC#N)Oc3ccccc3)O2)c(=O)[nH]c1=O (centres unmarked) [Cpd 846]	–	–	–	–	13 µM	14 µM	> 250 µM	–	–	> 250 µM
CCCCCCCCCCCCNP(=O)(OCC1OC(n2cc(C)c(=O)[nH]c2=O)CC1N=[N+]=[N-])Oc1ccccc1 (centres unmarked) [Cpd 661]	–	–	–	–	> 7 µM	> 7 µM	–	–	–	> 7 µM
COC(=O)C(CCSC)NP(=O)(OCC1C=CC(n2cc(C)c(=O)[nH]c2=O)O1)OCC(Cl)(Cl)Cl (centres unmarked) [Compound 345]	8 µM	11 µM	10 µM	–	–	–	–	–	–	–
CCCCCCO[PH](=O)OCC1C=CC(n2cc(C)c(=O)[nH]c2=O)O1 (centres unmarked) [Compound 786]	0.6 µM	0.5 µM	30 µM	150 µM	–	–	–	–	–	–
Cc1cn(C2CC(N=[N+]=[N-])C(COP(=O)(OCCC#N)OCC(F)(F)F)O2)c(=O)[nH]c1=O (centres unmarked) [Cpd 847]	–	–	–	–	12 µM	9 µM	> 250 µM	–	–	> 250 µM
CCCOP(=O)(OCC1C=CC(n2cc(C)c(=O)[nH]c2=O)O1)OCC(Cl)(Cl)Cl (centres unmarked) [Compound 404]	> 209 µM	> 209 µM	> 209 µM	–	–	–	–	–	–	–
COC(=O)C(C)NP(=O)(OCC1C=CC(n2ccc(=O)[nH]c2=O)O1)Oc1cccc(C(F)(F)F)c1 (centres unmarked) [Compound 547]	> 3520 µM	> 7 µM	> 35 µM	–	–	–	–	–	–	–
CCCNP(=O)(OCC1C=CC(n2cc(C)c(=O)[nH]c2=O)O1)OCC(Cl)(Cl)Cl (centres unmarked) [Compound 401]	> 210 µM	> 210 µM	> 210 µM	–	–	–	–	–	–	–
CCCCCCCCNP(=O)(OCC1C=CC(n2cc(C)c(=O)[nH]c2=O)O1)Oc1ccccc1 (centres unmarked) [Compound 829]	> 10 µM	≥ 10 µM	–	23 µM	–	–	–	–	–	–
Cc1cn(C2C=CC(COP(=O)(Oc3ccccc3)Oc3ccccc3)O2)c(=O)[nH]c1=O (centres unmarked) [Compound 880]	–	25 µM	75 µM	≥ 250 µM	–	–	–	–	–	–
CCNP(=O)(OCC1C=CC(n2cc(C)c(=O)[nH]c2=O)O1)OCC(Cl)(Cl)Cl (centres unmarked) [Compound 403]	> 216 µM	> 216 µM	> 218 µM	–	–	–	–	–	–	–
COCCOCCO[PH](=O)OCC1C=CC(n2cc(C)c(=O)[nH]c2=O)O1 (centres unmarked) [Compound 787]	0.65 µM	0.95 µM	45 µM	144 µM	–	–	–	–	–	–
CCCCCCCCCCO[PH](=O)OCC1C=CC(n2cc(C)c(=O)[nH]c2=O)O1 (centres unmarked) [Compound 789]	–	0.65 µM	40 µM	64 µM	–	–	–	–	–	–
CCCCCCCCCCCCNP(=O)(OCC1C=CC(n2cc(C)c(=O)[nH]c2=O)O1)Oc1ccccc1 (centres unmarked) [Compound 828]	> 10 µM	> 10 µM	–	14 µM	–	–	–	–	–	–
CCCCCCCCO[PH](=O)OCC1C=CC(n2cc(C)c(=O)[nH]c2=O)O1 (centres unmarked) [Compound 791]	0.4 µM	0.6 µM	23 µM	90 µM	–	–	–	–	–	–
Cc1cn([C@H]2C=C[C@@H](COP(=O)(O)O)O2)c(=O)[nH]c1=O [Compound 775]	0.8 µM	0.95 µM	33 µM	174 µM	–	–	–	–	–	–
COC(=O)C(C)NP(=O)(OCC1OC(n2cc(C)c(=O)[nH]c2=O)CC1N=[N+]=[N-])Oc1ccc(Br)cc1Br (centres unmarked) [Cpd 777]	–	–	–	–	0.5 µM	0.55 µM	55 µM	–	–	0.19 µM
Cc1cn([C@H]2C=C[C@@H](CO)O2)c(=O)[nH]c1=O [Compound 268, reference compound]	0.24 µM	1.2 µM	> 100 µM	–	–	–	–	–	–	–
